Measured values published in patent US20100286285A1, “Pharmaceutical composition comprising oleaginous ointments and vitamin D or its derivatives in the solubilized state” (GALDERMA RESEARCH & DEVELOPMENT, priority 2005, published 2010).

Assay: Maximum solubility of the active agent in various excipients
Assay type: physicochemical

- Sol max (in Arlamol E): 1.033 % w/w
- Sol max (in Cremophor RH40): 3.989 % w/w
- Sol max (in Ethanol 95): >20 % w/w
- Sol max (in Eutanol G): 0.322 % w/w
- Sol max (in IPP): 0.1654 % w/w
- Sol max (in Labrafil M1944CS): 0.936 % w/w
- Sol max (in Miglyol 812): 0.3167 % w/w
- Sol max (in PEG 400): 6.894 % w/w
- Sol max (in Primol 352): 0.0009 % w/w
- Sol max (in Propylene glycol): 2.3351 % w/w
- Sol max (in Sweet almond oil): 0.0932 % w/w
- Sol max (in Transcutol): >20 % w/w
SMILES: CCCc1cc(C(O)(CC)CC)ccc1-c1cc(OCc2ccc(CO)c(CO)c2)ccc1CC [Active agent, {4-[6-ethyl-4′-(1-ethyl-1-hydroxypropyl)-2′-propylbiphenyl-3-yloxymethyl]-2-hydroxy-methylphenyl}methanol]
